This note sets out measurements from patent US20240246942A1, “KINASE INHIBITORS FOR THE TREATMENT OF NEURODEGENERATIVE DISEASES” (priority 2020, published 2024).

What all share (test): biochemical
Assay [1] deals with T1, panel of 374 wild-type kinases (Homo sapiens, UniProt O60674).
T1 construct: purchased Reaction Biology Corporation
The conditions noted are these: read-out: % Enzyme Activity (relative to DMSO controls), JAK2.

Assay [2] addresses T2, panel of 374 wild-type kinases (Homo sapiens, UniProt P35968).
T2 construct: purchased Reaction Biology Corporation
The following applies: read-out: % Enzyme Activity (relative to DMSO controls), KDR/VEGFR2.

For assay [3], the target named is T3, panel of 374 wild-type kinases (Homo sapiens, UniProt P51956).
T3 construct: purchased Reaction Biology Corporation
T3 sequence (P51956 1-506): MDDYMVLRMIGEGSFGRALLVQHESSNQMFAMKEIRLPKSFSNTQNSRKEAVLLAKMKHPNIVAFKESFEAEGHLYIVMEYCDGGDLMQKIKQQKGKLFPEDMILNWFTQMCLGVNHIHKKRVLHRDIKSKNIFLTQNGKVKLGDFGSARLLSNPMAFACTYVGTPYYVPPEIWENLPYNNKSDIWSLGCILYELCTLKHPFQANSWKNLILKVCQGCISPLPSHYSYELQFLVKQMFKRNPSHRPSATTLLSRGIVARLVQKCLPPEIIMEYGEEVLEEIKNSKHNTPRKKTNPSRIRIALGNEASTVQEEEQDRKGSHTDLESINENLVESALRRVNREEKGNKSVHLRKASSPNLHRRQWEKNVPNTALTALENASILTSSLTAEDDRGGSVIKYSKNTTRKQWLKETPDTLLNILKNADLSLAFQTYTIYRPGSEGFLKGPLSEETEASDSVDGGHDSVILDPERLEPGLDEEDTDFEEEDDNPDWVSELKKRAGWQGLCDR
The following applies: read-out: % Enzyme Activity (relative to DMSO controls), NEK3.

Assay [4] concerns the target T4, panel of 374 wild-type kinases (Homo sapiens, UniProt Q5TCX8).
T4 construct: purchased Reaction Biology Corporation
The following applies: read-out: % Enzyme Activity (relative to DMSO controls), MLK4.

Assay [5] has as its target T5, panel of 374 wild-type kinases (Homo sapiens, UniProt Q99683).
T5 construct: purchased Reaction Biology Corporation
T5 sequence (Q99683 1-1374): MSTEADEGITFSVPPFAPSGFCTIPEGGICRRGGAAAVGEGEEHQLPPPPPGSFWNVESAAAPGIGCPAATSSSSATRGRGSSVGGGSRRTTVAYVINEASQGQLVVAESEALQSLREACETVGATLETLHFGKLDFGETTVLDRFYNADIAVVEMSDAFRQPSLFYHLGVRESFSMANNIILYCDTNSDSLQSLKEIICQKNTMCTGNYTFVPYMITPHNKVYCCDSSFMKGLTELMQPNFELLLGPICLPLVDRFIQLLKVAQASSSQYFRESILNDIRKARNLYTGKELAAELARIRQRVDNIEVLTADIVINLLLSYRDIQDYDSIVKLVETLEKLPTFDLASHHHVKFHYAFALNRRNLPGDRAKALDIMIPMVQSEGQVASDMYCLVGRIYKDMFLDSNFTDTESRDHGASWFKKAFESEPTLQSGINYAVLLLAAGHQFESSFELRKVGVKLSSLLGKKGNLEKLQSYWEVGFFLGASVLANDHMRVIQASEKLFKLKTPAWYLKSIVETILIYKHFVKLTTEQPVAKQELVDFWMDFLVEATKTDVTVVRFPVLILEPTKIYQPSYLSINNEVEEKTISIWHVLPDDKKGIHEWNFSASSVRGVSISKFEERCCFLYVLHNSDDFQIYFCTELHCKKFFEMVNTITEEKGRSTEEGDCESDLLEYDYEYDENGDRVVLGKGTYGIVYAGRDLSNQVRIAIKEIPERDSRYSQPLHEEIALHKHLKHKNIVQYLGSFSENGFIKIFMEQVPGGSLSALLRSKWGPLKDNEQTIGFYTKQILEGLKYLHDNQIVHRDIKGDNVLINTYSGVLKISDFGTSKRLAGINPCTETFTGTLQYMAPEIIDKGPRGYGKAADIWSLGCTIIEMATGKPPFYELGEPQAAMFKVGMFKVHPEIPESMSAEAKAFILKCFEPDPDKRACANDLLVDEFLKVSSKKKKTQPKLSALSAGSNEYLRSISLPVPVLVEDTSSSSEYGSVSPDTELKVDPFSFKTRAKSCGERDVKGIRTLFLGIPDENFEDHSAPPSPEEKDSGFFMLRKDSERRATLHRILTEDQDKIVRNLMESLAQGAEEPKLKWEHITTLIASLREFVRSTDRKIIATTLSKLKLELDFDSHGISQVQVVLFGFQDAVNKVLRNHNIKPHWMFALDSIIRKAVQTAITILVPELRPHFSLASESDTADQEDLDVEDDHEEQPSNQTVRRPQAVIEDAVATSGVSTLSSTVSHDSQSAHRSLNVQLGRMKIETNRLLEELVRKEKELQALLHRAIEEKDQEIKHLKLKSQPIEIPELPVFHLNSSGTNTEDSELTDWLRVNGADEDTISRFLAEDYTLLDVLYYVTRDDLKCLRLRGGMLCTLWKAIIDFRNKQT
The following applies: read-out: % Enzyme Activity (relative to DMSO controls), ASK1/MAP3K5.

Assay [6] deals with T6, panel of 374 wild-type kinases (Homo sapiens, UniProt Q9H422).
T6 construct: purchased Reaction Biology Corporation
The conditions noted are these: read-out: % Enzyme Activity (relative to DMSO controls), HIPK3.

T4 sequence (Q5TCX8 whole entry): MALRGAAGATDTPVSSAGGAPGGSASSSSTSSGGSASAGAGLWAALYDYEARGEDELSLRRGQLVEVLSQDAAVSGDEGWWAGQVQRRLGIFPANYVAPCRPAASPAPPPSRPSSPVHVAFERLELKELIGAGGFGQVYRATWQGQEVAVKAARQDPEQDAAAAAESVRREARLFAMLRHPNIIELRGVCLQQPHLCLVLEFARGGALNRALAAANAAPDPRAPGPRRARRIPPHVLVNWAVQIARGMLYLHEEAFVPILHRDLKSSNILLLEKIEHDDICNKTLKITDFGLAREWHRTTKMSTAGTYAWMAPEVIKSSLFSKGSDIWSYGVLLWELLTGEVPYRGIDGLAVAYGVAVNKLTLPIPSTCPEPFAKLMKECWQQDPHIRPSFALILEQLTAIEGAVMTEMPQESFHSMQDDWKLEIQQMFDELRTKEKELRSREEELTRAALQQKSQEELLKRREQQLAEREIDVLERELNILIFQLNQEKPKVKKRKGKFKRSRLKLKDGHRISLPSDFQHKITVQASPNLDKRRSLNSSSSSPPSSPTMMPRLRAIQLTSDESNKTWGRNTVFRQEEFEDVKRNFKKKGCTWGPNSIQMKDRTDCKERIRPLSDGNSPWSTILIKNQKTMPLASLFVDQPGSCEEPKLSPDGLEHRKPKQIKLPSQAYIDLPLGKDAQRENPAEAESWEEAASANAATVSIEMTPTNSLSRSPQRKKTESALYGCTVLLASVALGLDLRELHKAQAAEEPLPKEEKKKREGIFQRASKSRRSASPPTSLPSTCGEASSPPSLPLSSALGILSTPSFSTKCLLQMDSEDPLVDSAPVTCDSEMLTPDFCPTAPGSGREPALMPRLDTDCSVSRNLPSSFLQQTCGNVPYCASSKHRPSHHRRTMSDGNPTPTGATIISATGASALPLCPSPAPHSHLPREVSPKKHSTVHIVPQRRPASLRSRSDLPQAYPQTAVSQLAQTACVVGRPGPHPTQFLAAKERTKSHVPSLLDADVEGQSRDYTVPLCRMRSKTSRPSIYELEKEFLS
T1 sequence (O60674 whole entry): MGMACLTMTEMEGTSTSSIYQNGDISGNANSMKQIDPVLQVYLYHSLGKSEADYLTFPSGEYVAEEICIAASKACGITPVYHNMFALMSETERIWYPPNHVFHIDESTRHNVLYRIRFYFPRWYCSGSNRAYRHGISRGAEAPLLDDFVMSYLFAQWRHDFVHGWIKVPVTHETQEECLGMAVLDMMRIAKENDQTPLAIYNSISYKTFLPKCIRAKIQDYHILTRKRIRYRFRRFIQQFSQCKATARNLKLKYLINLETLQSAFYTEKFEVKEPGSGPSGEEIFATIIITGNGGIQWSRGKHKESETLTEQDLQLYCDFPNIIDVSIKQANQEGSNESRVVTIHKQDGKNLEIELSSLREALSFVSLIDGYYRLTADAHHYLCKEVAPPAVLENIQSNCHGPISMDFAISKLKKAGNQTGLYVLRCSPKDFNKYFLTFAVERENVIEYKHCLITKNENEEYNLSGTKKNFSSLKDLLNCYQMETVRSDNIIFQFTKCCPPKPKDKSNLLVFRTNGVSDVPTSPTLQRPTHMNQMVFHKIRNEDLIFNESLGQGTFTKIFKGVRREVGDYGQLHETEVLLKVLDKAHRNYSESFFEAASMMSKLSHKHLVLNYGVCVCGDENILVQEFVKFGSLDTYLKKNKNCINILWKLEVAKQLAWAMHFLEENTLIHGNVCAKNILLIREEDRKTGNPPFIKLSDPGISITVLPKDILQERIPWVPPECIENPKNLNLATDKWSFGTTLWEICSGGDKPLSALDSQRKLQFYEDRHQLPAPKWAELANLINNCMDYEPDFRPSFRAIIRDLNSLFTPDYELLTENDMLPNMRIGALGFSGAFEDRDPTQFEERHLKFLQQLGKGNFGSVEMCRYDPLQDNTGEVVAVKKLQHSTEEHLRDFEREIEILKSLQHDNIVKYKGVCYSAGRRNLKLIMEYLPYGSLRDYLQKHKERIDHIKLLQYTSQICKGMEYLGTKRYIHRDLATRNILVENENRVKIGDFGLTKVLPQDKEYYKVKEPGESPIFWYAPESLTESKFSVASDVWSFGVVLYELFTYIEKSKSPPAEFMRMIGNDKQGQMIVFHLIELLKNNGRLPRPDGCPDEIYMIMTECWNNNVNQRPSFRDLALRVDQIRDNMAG
T6 sequence (Q9H422 whole entry): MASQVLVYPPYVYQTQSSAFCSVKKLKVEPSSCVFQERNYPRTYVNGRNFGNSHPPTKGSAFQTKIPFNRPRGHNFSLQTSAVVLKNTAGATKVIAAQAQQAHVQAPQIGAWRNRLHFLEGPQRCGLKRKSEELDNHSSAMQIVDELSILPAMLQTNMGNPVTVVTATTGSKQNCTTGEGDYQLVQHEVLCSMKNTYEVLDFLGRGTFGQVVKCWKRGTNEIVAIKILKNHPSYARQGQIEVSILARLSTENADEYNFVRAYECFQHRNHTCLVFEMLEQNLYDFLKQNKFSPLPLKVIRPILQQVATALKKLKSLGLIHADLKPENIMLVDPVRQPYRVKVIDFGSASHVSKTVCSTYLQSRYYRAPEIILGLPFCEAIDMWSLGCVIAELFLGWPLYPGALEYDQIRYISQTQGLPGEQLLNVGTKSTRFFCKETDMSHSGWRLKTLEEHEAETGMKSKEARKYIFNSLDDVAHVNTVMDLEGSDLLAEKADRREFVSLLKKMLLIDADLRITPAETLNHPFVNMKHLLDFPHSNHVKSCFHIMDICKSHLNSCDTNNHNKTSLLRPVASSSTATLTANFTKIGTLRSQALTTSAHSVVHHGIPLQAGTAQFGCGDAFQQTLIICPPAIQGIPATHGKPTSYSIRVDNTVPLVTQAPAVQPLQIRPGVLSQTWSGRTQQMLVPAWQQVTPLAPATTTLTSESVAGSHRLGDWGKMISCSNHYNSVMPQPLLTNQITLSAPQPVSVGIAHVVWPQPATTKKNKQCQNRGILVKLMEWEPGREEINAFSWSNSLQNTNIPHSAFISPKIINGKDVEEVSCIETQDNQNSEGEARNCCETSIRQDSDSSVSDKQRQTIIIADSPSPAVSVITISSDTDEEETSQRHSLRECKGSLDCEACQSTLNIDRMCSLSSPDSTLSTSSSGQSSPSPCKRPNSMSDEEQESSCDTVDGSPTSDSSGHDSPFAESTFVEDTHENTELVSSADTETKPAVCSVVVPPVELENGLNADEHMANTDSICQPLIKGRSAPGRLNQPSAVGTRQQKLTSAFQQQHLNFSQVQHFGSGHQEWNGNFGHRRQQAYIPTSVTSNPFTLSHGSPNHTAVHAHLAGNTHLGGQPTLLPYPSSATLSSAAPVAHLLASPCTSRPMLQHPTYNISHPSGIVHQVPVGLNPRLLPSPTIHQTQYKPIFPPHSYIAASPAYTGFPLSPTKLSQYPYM
T2 sequence (P35968 20-1356): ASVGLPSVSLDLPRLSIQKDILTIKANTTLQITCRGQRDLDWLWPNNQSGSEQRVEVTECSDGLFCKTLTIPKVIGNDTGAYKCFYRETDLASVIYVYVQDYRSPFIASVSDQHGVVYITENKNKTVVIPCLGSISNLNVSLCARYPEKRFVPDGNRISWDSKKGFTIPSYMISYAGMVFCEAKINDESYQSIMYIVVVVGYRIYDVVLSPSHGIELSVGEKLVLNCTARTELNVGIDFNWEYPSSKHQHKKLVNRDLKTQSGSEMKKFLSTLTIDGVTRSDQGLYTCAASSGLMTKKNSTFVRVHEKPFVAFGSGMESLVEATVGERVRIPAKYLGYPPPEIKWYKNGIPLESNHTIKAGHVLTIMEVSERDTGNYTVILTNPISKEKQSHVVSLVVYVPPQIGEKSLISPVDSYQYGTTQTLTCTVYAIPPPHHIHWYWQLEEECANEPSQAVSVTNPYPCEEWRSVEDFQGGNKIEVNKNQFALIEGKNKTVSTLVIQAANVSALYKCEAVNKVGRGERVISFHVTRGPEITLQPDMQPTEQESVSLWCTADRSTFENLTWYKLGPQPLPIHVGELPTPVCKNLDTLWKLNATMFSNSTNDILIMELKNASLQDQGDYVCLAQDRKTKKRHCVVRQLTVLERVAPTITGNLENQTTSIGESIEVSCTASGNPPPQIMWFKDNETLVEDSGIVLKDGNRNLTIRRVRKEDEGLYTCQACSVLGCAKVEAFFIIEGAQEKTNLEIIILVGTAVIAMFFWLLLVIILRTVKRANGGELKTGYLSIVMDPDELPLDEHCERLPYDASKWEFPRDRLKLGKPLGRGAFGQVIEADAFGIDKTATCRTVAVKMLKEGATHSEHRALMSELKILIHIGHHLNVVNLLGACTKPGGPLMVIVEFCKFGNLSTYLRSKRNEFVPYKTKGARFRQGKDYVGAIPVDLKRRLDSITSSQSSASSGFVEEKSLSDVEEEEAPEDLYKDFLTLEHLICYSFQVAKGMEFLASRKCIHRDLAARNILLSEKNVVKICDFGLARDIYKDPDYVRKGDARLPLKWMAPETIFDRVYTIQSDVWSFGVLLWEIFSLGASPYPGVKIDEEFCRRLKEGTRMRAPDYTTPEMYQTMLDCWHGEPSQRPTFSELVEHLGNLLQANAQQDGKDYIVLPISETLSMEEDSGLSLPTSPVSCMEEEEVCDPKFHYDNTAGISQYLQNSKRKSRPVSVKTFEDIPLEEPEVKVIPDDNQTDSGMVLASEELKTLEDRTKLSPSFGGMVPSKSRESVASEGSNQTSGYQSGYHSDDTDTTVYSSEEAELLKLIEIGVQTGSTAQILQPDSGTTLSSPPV

Consider `Cc1sc(C(=O)NC2COC2)cc1-n1cc(NC(=O)Nc2c(F)cccc2Cl)cn1` [Compound 27, 4-(4-(3-(2-chloro-6-fluorophenyl)ureido)-1H-pyrazol-1-yl)-5-methyl-N-(oxetan-3-yl)thiophene-2-carboxamide], for which the remaining activity at 10 µM came out at 95% in assay [1] (10 uM); 88.2% in assay [2] (10 uM); 87.5% in assay [3] (10 uM); 85.2% in assay [4] (10 uM); 94% in assay [5] (10 uM); 88.5% in assay [6] (10 uM).

Consider `O=C(Nc1cnn(-c2csc(C(=O)NC3COC3)c2)c1)Nc1c(F)cccc1Cl` [Compound 25, 4-(4-(3-(2-chloro-6-fluorophenyl)ureido)-1H-pyrazol-1-yl)-N-(oxetan-3-yl)thiophene-2-carboxamide], for which the remaining activity at 5 µM in assay [1] is 96.5%; in assay [2] it was 88.3%; in assay [3], 87.2%; in assay [4], 94.3%; in assay [5], 91.1%; in assay [6] it was 98.8%.

Turning to `O=C(Nc1cnn(-c2csc(C(=O)NC3COC3)c2)c1)Nc1ccccc1Cl` [Compound 17, 4-(4-(3-(2-chlorophenyl)ureido)-1H-pyrazol-1-yl)-N-(oxetan-3-yl)thiophene-2-carboxamide], the remaining activity at 5 µM in assay [1] turned out to be 98.2%; in assay [2], 95.2%; in assay [3], 103%; in assay [4], 93.2%; in assay [5] it was 91.2%; in assay [6] it was 97.6%.
